# Measurements taken from ChEMBL document CHEMBL1201862, “PubChem BioAssay data set” (2004).
# Activity calls are given as the source filed them.
# Columns and labels:
# [1] = biological target: T1, Glycogen synthase kinase-3 alpha (Homo sapiens, UniProt P49840); assay: GSK3A enzyme blockers, homolog specificity check – biochemical, microfluidics, dry powder samples, set 2, selectivity assay for GSK3beta inhibitor project, dose response (AID 623978); format: functional
# [2] = biological target: T2, Glycogen synthase kinase-3 beta (Homo sapiens, UniProt P49841); assay: inhibition of human GSK3B activity – biochemical, microfluidics, dry powder samples, set 2, dose response (AID 623989); format: functional
# [3] = biological target: Cyclin-dependent kinase 5/CDK5 activator 1 (Homo sapiens, UniProt Q00535); assay: inhibitors of human CDK5 activity – biochemical, microfluidic mobility shift, dry powder, set 2, selectivity assay for GSK3beta inhibitor project, dose response (AID 623979); format: functional
# [4] = biological target: FAD-linked sulfhydryl oxidase ALR (Homo sapiens, UniProt P55789); assay: ALR-catalysed DTT oxidation blockers – biochemical, H2O2 detection, luminescence, cherry-pick, dose response (AID 493248)
# [5] = biological target: T3, Apoptotic protease-activating factor 1 (Homo sapiens, UniProt O14727); assay: SAR analysis of small molecule Activators of Apaf-1 in a Fluorescent assay - set 2.; format: functional; conditions: read-out: EC50_Mean
# T3 sequence (O14727 whole entry): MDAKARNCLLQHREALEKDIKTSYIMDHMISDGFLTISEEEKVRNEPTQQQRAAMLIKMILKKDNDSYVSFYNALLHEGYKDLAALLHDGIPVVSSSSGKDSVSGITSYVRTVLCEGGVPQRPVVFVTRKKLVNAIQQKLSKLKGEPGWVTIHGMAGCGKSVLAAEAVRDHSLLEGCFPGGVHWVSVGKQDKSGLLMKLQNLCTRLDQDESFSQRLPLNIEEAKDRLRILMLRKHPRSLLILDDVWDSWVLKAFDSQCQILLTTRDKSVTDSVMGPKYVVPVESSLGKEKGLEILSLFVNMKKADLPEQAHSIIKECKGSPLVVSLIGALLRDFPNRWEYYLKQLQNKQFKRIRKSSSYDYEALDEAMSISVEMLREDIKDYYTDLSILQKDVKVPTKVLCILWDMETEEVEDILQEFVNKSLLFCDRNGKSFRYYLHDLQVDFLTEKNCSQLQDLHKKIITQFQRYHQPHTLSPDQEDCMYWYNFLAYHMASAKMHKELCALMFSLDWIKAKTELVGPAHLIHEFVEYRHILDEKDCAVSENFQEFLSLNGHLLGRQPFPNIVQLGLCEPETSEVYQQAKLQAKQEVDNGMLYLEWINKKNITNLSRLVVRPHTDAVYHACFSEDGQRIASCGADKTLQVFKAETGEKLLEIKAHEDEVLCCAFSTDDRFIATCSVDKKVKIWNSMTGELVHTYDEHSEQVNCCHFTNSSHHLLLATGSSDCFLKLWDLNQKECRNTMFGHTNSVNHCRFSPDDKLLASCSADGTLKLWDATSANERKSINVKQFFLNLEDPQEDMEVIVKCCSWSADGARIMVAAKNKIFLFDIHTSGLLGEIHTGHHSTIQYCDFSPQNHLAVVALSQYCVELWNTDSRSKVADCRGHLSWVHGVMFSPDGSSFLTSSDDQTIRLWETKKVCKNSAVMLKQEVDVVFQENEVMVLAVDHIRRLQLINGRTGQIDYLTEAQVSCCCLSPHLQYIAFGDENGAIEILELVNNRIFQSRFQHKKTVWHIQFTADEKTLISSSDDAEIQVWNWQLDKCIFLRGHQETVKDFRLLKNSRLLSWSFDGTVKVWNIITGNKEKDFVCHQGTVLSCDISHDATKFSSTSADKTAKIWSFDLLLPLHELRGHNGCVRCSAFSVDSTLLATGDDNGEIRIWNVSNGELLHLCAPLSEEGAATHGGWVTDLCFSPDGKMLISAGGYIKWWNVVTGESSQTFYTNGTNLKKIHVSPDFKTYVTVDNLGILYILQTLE
# [6] = SAR analysis of small molecule activators of Apaf-1 using a LZ-Caspase-9/Caspase-3 Fluorescent Selectivity assay - Set 2.; format: functional; conditions: read-out: EC50_Mean
# [7] = biological target: Dual specificity mitogen-activated protein kinase kinase 1 (Homo sapiens, UniProt Q02750); assay: Navigating the Kinome. Panel member name: MAP2K1; format: functional
# [8] = biological target: Mitogen-activated protein kinase 8 (Homo sapiens, UniProt P45983); format: functional;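 also: value comes from one member of a kinome-wide kinase profiling panel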
# [9] = biological target: Fibroblast growth factor receptor 1 (Homo sapiens, UniProt P11362); format: functional
# [10] = biological target: T1, Glycogen synthase kinase-3 alpha; format: functional
# [11] = biological target: Tyrosine-protein kinase JAK2 (Homo sapiens, UniProt O60674); format: functional;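 also: JAK2 tested as one member of a kinase panel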
# [12] = biological target: Vascular endothelial growth factor receptor 1 (Homo sapiens, UniProt P17948); format: functional;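 also: measured within a kinome-wide profiling panel, FLT1 as the panel member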
# [13] = biological target: Dual specificity mitogen-activated protein kinase kinase 2 (Homo sapiens, UniProt P36507); assay: Navigating the Kinome. Panel member name: MAP2K2; format: functional
# [14] = biological target: Dual specificity tyrosine-phosphorylation-regulated kinase 1B (Homo sapiens, UniProt Q9Y463); assay: Navigating the Kinome. Panel member name: DYRK1B; format: functional
# [15] = biological target: Serine/threonine-protein kinase pim-1 (Homo sapiens, UniProt P11309); format: functional
# [16] = biological target: Serine/threonine-protein kinase PAK 4 (Homo sapiens, UniProt O96013); format: functional;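 also: value obtained within a kinome profiling panel in which PAK4 was one of the panel members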
# [17] = biological target: T2, Glycogen synthase kinase-3 beta; format: functional
# [18] = biological target: Cyclin-dependent kinase 5 (Homo sapiens, UniProt Q00535); format: functional;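 also: CDK5 measured as one member of a kinase profiling panel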
# [19] = biological target: cAMP-dependent protein kinase catalytic subunit alpha (Homo sapiens, UniProt P17612); format: functional
# [20] = biological target: Mitogen-activated protein kinase kinase kinase kinase 4 (Homo sapiens, UniProt O95819); format: functional
# [21] = biological target: G protein-coupled receptor kinase 5 (Homo sapiens, UniProt P34947); assay: Navigating the Kinome. Panel member name: GPRK5; format: functional
# [22] = biological target: Insulin-like growth factor 1 receptor (Homo sapiens, UniProt P08069); assay: Navigating the Kinome. Panel member name: IGF1R; format: functional
# [23] = biological target: Cyclin-dependent kinase 7 (Homo sapiens, UniProt P50613); format: functional;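 also: value comes from a kinome-wide kinase profiling panel in which CDK7 is one member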
# [24] = biological target: Tyrosine-protein kinase receptor TYRO3 (Homo sapiens, UniProt Q06418); format: functional;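 also: TYRO3 value obtained as one member of a kinome-wide profiling panel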
# [25] = biological target: Tyrosine-protein kinase JAK3 (Homo sapiens, UniProt P52333); format: functional
# [26] = biological target: Tyrosine-protein kinase Fyn (Homo sapiens, UniProt P06241); format: functional
# [27] = biological target: Proto-oncogene tyrosine-protein kinase receptor Ret (Homo sapiens, UniProt P07949); format: functional;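 also: measured within a kinome-wide profiling panel, RET as the panel member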
# [28] = biological target: Rho-associated protein kinase 1 (Homo sapiens, UniProt Q13464); format: functional;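 also: measured within a broad kinome-wide panel profiling many kinases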
# [29] = biological target: Activated CDC42 kinase 1 (Homo sapiens, UniProt Q07912); assay: Navigating the Kinome. Panel member name: ACK1; format: functional
# [30] = biological target: Platelet-derived growth factor receptor alpha (Homo sapiens, UniProt P16234); assay: Navigating the Kinome. Panel member name: PDGFRA; format: functional
# [31] = biological target: Cyclin-dependent kinase 9 (Homo sapiens, UniProt P50750); format: functional;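 also: value from the CDK9 entry of a kinome-spanning kinase panel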
# [32] = biological target: Activin receptor type-1 (Homo sapiens, UniProt Q04771); assay: Navigating the Kinome. Panel member name: ACVR1; format: functional
# [33] = biological target: Ribosomal protein S6 kinase alpha-3 (Homo sapiens, UniProt P51812); format: functional;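 also: measured within a kinome-wide profiling panel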
# [34] = biological target: Aurora kinase A (Homo sapiens, UniProt O14965); format: functional;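 also: value from the Navigating the Kinome kinase panel profiling, panel entry STK6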
# [35] = biological target: Leucine-rich repeat serine/threonine-protein kinase 2 (Homo sapiens, UniProt Q5S007); format: functional;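 also: value from a broad kinome-wide panel profiling study in which LRRK2 was one of the kinases tested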
# [36] = biological target: Dual specificity protein kinase CLK4 (Homo sapiens, UniProt Q9HAZ1); format: functional
# [37] = biological target: Dual specificity protein kinase CLK2 (Homo sapiens, UniProt P49760); format: functional
# [38] = biological target: Calcium/calmodulin-dependent protein kinase type II subunit alpha (Homo sapiens, UniProt Q9UQM7); assay: Navigating the Kinome. Panel member name: CAMK2A; format: functional
# [39] = biological target: 5'-AMP-activated protein kinase catalytic subunit alpha-1 (Homo sapiens, UniProt Q13131); format: functional
# [40] = biological target: Mitogen-activated protein kinase kinase kinase kinase 2 (Homo sapiens, UniProt Q12851); format: functional;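 also: measured as one member of a kinome-wide kinase panel, with MAP4K2 as the panel entry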
# [41] = biological target: BDNF/NT-3 growth factors receptor (Homo sapiens, UniProt Q16620); format: functional;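 also: NTRK2 measured as one member of a broad kinome-wide kinase profiling panel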
# [42] = biological target: Mitogen-activated protein kinase 9 (Homo sapiens, UniProt P45984); format: functional;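 also: value from a kinome panel profiling assay, MAPK9 panel entry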
# [43] = biological target: ALK tyrosine kinase receptor (Homo sapiens, UniProt Q9UM73); format: functional;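 also: ALK tested as one member of a kinase panel screen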
# [44] = biological target: Serine/threonine-protein kinase TBK1 (Homo sapiens, UniProt Q9UHD2); assay: Navigating the Kinome. Panel member name: TBK1; format: functional
# [45] = biological target: Receptor-type tyrosine-protein kinase FLT3 (Homo sapiens, UniProt P36888); format: functional;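 also: FLT3 was tested as one member of a kinome-wide kinase panel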
# [46] = biological target: Tyrosine-protein kinase Lck (Homo sapiens, UniProt P06239); format: functional;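 also: lck was assayed as one member of a kinase panel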
# [47] = biological target: Vascular endothelial growth factor receptor 2 (Homo sapiens, UniProt P35968); format: functional
# [48] = biological target: Serine/threonine-protein kinase TAO1 (Homo sapiens, UniProt Q7L7X3); format: functional
# [49] = biological target: Tyrosine-protein kinase BTK (Homo sapiens, UniProt Q06187); format: functional
# [50] = biological target: Inhibitor of nuclear factor kappa-B kinase subunit epsilon (Homo sapiens, UniProt Q14164); assay: Navigating the Kinome. Panel member name: IKBKE; format: functional
# [51] = biological target: Tyrosine-protein kinase ABL1 (Homo sapiens, UniProt P00519); format: functional
# [52] = biological target: cAMP-dependent protein kinase catalytic subunit PRKX (Homo sapiens, UniProt P51817); format: functional
# [53] = biological target: Protein kinase C theta type (Homo sapiens, UniProt Q04759); assay: Navigating the Kinome. Panel member name: PRKCQ; format: functional
# [54] = biological target: Macrophage colony-stimulating factor 1 receptor (Homo sapiens, UniProt P07333); format: functional;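 also: value comes from the Navigating the Kinome screening panel, CSF1R member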
# [55] = biological target: Serine/threonine-protein kinase D3 (Homo sapiens, UniProt O94806); format: functional;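 also: determined within a kinase panel screen, with PRKCN as the panel member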
# [56] = biological target: Cyclin-dependent kinase 8 (Homo sapiens, UniProt P49336); assay: Navigating the Kinome. Panel member name: CDK8; format: functional
# [57] = biological target: Leukocyte tyrosine kinase receptor (Homo sapiens, UniProt P29376); assay: Navigating the Kinome. Panel member name: LTK; format: functional
# [58] = biological target: Serine/threonine-protein kinase N2 (Homo sapiens, UniProt Q16513); format: functional
# [59] = biological target: Mitogen-activated protein kinase 14 (Homo sapiens, UniProt Q16539); format: functional;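 also: part of a kinome-wide panel, MAPK14 entry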
# [60] = biological target: Macrophage-stimulating protein receptor (Homo sapiens, UniProt Q04912); assay: Navigating the Kinome. Panel member name: MST1R; format: functional
# [61] = biological target: Dual specificity tyrosine-phosphorylation-regulated kinase 1A (Homo sapiens, UniProt Q13627); format: functional;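 also: measured against DYRK1A as one member of a broad kinome profiling panel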
# [62] = biological target: Death-associated protein kinase 3 (Homo sapiens, UniProt O43293); format: functional;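 also: measured as one member of a kinome-wide profiling panel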
# Death-associated protein kinase 3, sequence (O43293 whole entry): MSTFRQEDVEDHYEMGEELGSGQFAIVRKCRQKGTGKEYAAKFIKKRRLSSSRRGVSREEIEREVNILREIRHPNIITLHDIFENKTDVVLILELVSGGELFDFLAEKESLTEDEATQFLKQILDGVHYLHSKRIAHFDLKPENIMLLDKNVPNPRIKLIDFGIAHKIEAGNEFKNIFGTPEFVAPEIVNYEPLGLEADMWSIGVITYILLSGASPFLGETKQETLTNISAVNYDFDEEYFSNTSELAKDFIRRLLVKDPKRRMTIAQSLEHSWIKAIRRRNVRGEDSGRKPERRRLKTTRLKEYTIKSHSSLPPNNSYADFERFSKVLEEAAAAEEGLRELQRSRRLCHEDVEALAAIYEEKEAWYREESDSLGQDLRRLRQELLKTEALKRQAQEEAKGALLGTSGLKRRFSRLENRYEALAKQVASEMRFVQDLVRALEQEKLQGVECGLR
# T1 sequence (P49840 whole entry): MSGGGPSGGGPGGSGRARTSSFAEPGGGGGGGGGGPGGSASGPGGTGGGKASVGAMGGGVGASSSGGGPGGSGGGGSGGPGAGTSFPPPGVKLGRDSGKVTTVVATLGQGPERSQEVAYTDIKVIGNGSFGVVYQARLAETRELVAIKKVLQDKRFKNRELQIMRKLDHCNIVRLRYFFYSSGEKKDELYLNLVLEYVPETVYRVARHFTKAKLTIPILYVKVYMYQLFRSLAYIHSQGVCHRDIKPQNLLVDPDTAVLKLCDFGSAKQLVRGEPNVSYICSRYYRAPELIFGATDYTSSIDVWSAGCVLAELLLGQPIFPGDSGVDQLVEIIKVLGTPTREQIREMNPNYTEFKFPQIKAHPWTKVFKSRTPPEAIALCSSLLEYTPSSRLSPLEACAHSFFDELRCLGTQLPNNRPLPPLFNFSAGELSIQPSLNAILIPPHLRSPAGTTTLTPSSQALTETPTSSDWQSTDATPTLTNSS
# T2 sequence (P49841 whole entry): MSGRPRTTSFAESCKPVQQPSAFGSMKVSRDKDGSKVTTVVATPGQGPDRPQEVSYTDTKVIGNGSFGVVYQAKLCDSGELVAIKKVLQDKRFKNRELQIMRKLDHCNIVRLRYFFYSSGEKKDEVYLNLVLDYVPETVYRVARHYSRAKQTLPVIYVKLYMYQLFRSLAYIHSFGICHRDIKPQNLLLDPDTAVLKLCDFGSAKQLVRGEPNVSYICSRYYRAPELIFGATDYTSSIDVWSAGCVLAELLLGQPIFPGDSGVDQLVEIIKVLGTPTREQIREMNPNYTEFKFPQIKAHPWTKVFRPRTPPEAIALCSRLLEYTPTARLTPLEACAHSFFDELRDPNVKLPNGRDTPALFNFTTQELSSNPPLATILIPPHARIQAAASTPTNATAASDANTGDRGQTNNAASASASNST
# cAMP-dependent protein kinase catalytic subunit PRKX, sequence (P51817 whole entry): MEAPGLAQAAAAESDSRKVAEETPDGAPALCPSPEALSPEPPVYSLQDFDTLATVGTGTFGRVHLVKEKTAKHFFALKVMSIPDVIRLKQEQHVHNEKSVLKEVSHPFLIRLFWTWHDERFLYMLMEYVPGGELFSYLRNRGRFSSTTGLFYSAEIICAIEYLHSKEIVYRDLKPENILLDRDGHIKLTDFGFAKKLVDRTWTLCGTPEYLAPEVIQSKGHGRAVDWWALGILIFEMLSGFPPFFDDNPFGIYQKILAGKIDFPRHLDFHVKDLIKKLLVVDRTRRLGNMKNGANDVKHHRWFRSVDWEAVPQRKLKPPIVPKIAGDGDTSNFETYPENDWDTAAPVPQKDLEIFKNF
# Receptor-type tyrosine-protein kinase FLT3, sequence (P36888 whole entry): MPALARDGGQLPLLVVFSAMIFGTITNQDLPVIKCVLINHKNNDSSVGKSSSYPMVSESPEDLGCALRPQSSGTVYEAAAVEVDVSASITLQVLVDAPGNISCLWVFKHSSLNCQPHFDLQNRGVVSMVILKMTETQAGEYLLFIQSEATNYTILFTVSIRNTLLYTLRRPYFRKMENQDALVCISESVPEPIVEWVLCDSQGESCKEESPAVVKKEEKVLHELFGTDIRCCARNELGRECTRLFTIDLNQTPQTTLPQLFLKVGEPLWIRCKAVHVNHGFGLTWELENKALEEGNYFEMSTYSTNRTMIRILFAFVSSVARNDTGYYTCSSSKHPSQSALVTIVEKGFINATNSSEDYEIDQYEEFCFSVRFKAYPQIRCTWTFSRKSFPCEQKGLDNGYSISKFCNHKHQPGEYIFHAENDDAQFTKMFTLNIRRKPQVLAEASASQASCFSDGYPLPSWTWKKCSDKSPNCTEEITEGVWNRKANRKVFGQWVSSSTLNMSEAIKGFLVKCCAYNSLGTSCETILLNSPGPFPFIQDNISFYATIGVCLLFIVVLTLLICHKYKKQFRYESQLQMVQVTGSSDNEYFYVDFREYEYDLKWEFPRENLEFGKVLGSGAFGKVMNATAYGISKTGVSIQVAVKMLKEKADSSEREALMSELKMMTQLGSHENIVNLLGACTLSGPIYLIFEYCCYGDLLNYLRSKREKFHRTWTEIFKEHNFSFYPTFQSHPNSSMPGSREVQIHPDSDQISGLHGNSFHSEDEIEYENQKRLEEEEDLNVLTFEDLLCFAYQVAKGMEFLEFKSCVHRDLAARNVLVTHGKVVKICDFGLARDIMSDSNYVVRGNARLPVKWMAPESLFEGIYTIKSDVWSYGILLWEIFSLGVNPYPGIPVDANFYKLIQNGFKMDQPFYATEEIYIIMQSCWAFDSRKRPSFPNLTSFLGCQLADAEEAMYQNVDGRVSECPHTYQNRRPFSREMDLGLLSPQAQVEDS
# Cyclin-dependent kinase 8, sequence (P49336 whole entry): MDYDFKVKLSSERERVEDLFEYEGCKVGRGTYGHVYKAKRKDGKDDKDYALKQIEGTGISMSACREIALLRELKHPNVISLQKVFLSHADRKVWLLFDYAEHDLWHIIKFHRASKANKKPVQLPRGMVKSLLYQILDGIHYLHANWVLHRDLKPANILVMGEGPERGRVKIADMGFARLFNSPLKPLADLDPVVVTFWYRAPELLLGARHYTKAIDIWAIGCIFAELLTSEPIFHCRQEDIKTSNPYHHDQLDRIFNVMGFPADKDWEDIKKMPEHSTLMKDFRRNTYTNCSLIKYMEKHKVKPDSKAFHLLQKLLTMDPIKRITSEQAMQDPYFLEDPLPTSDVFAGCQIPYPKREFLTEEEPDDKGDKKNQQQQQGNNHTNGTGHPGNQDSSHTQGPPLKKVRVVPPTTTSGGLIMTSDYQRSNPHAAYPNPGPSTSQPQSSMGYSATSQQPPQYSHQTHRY
# Dual specificity protein kinase CLK4, sequence (Q9HAZ1 whole entry): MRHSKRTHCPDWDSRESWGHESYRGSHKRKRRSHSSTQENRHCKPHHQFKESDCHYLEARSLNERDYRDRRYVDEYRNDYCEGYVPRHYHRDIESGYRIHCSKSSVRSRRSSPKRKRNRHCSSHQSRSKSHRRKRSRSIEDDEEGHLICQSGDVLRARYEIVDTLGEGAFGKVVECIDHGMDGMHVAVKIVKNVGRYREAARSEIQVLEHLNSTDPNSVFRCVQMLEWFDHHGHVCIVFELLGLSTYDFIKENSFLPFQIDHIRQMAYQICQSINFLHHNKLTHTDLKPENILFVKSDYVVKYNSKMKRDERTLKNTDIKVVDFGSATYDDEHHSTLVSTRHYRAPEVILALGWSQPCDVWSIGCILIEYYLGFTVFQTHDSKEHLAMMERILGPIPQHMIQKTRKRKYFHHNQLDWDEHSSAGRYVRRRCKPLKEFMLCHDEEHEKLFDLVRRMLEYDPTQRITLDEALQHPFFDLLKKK
# Serine/threonine-protein kinase N2, sequence (Q16513 whole entry): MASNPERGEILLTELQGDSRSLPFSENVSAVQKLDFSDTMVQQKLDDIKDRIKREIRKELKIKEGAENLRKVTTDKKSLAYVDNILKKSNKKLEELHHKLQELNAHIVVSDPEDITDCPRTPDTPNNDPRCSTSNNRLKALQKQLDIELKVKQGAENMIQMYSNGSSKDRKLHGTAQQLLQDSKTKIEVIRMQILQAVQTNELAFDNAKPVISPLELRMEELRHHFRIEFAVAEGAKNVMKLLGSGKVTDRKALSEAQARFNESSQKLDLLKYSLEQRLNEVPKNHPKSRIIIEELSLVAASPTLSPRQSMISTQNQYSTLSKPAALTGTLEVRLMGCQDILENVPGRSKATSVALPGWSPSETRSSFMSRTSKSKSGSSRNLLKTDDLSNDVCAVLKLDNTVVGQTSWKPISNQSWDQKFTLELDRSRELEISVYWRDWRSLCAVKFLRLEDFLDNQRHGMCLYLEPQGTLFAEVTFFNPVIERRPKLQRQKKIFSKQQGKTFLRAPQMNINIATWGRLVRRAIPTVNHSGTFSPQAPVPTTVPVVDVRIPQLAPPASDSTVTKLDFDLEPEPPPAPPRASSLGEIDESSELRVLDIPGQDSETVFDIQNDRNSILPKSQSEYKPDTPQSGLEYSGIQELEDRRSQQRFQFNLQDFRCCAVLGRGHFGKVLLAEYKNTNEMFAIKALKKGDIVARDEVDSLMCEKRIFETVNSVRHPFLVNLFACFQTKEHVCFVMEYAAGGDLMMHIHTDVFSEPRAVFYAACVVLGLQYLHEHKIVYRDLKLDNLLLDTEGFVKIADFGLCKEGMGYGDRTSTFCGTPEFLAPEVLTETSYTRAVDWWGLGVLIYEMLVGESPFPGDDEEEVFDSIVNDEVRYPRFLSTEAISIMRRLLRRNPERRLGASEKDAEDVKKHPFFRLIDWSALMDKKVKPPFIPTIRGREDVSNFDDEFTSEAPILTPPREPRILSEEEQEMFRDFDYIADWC
# FAD-linked sulfhydryl oxidase ALR, sequence (P55789 whole entry): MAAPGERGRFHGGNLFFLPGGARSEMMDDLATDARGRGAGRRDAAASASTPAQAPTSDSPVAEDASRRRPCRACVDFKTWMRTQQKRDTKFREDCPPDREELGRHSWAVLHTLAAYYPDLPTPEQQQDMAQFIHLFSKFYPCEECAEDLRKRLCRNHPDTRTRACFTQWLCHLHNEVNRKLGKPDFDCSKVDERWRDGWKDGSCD
smiles,measurement,setting,value
COc1ccc(S(=O)(=O)Nc2c(C(=O)O)[nH]c3ccc(OC)cc23)cc1,AC50,[1],5.47 µM (active)
same,AC50,[2],1.46 µM (active)
same,AC50,[3],3.7 µM (active)
same,AC50,[4],2.51 µM (active)
CC(Cn1nnc2ccccc21)C(=O)O (configuration not stated),EC50,[5],42.6 µM (active)
same,EC50,[6],> 100 µM (inactive)
CC1CCN(C(=O)CC#N)CC1c1ncc2cnc3[nH]ccc3n12 (configuration not stated),Ki,[7],> 3.16 µM (inactive)
same,Ki,[8],> 2.51 µM (inactive)
same,Ki,[9],> 3.98 µM (inactive)
same,Ki,[10],2.51 µM (active)
same,Ki,[11],0.000794 µM (active)
same,Ki,[12],> 3.98 µM (inactive)
same,Ki,[13],> 3.98 µM (inactive)
same,Ki,[14],> 2.51 µM (inactive)
same,Ki,[15],> 6.31 µM (inactive)
same,Ki,[16],> 5.01 µM (inactive)
same,Ki,[17],> 3.98 µM (inactive)
same,Ki,[18],> 3.16 µM (inactive)
same,Ki,[19],0.501 µM (active)
same,Ki,[20],> 5.01 µM (inactive)
same,Ki,[21],> 3.98 µM (inactive)
same,Ki,[22],> 2.51 µM (inactive)
same,Ki,[23],> 3.98 µM (inactive)
same,Ki,[24],> 3.16 µM (inactive)
same,Ki,[25],0.00316 µM (active)
same,Ki,[26],> 6.31 µM (inactive)
same,Ki,[27],2.51 µM (active)
same,Ki,[28],0.0251 µM (active)
same,Ki,[29],> 3.16 µM (inactive)
same,Ki,[30],> 2.51 µM (inactive)
same,Ki,[31],> 1.58 µM (inactive)
same,Ki,[32],> 3.98 µM (inactive)
same,Ki,[33],> 3.98 µM (inactive)
same,Ki,[34],> 1.58 µM (inactive)
same,Ki,[35],0.316 µM (active)
same,Ki,[36],> 2.51 µM (inactive)
same,Ki,[37],> 3.98 µM (inactive)
same,Ki,[38],> 7.94 µM (inactive)
same,Ki,[39],> 3.16 µM (inactive)
same,Ki,[40],> 2.51 µM (inactive)
same,Ki,[41],> 3.98 µM (inactive)
same,Ki,[42],> 3.98 µM (inactive)
same,Ki,[43],> 6.31 µM (inactive)
same,Ki,[44],> 3.16 µM (inactive)
same,Ki,[45],> 3.16 µM (inactive)
same,Ki,[46],2.51 µM (active)
same,Ki,[47],1.26 µM (active)
same,Ki,[48],> 6.31 µM (inactive)
same,Ki,[49],> 6.31 µM (inactive)
same,Ki,[50],> 3.16 µM (inactive)
same,Ki,[51],> 3.98 µM (inactive)
same,Ki,[52],0.316 µM (active)
same,Ki,[53],> 1.26 µM (inactive)
same,Ki,[54],> 2.51 µM (inactive)
same,Ki,[55],> 3.98 µM (inactive)
same,Ki,[56],> 3.16 µM (inactive)
same,Ki,[57],1 µM (active)
same,Ki,[58],0.316 µM (active)
same,Ki,[59],> 3.98 µM (inactive)
same,Ki,[60],> 2.51 µM (inactive)
same,Ki,[61],> 2 µM (inactive)
same,Ki,[62],> 5.01 µM (inactive)
